# From patent US6323202A, “HSV primase inhibitors” (Boehringer Ingelheim (Canada) Ltd., priority 2000, dated 2001)
# pEC50, pIC50: −log10 of the molar value.
# Legend:
# [1] = target: T1, HSV-1 helicase-primase (UL5(K103A) helicase-primase holoenzyme) (Human herpesvirus 1, UniProt P10189+P10236, K103A); test: HSV-1 Helicase-primase DNA Primase Assay (incorporation of [3H]GTP into primers); type: biochemical
# T1 construct: made in house; host or cells: recombinant baculovirus expression (insect cells, by own knowledge of the cited Dodson 1989 and Dracheva 1995 methods)
# T1 sequence (P10189 whole entry, looked up, stated change not applied): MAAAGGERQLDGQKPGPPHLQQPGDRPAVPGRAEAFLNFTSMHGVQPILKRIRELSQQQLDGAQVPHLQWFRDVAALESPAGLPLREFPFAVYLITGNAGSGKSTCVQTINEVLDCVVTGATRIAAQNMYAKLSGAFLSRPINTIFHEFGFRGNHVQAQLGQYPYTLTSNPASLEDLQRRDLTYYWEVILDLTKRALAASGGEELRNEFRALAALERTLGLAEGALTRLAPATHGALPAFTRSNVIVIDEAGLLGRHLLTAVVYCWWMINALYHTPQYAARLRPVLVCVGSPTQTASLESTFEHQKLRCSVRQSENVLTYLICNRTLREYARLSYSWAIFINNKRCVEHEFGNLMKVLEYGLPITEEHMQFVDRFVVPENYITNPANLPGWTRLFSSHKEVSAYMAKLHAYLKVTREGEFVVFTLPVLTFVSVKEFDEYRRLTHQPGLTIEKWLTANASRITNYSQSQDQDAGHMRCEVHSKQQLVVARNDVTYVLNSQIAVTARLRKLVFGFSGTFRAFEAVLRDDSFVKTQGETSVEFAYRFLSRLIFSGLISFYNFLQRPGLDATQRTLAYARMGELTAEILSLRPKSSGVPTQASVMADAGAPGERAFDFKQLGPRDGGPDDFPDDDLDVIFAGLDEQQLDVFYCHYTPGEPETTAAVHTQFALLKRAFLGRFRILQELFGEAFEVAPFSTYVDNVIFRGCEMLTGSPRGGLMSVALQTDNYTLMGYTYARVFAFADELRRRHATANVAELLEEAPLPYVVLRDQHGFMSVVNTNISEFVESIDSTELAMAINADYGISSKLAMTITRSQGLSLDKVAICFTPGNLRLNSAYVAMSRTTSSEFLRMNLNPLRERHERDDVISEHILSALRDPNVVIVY
# T1 sequence (P10192 whole entry, stated change not applied, further chain): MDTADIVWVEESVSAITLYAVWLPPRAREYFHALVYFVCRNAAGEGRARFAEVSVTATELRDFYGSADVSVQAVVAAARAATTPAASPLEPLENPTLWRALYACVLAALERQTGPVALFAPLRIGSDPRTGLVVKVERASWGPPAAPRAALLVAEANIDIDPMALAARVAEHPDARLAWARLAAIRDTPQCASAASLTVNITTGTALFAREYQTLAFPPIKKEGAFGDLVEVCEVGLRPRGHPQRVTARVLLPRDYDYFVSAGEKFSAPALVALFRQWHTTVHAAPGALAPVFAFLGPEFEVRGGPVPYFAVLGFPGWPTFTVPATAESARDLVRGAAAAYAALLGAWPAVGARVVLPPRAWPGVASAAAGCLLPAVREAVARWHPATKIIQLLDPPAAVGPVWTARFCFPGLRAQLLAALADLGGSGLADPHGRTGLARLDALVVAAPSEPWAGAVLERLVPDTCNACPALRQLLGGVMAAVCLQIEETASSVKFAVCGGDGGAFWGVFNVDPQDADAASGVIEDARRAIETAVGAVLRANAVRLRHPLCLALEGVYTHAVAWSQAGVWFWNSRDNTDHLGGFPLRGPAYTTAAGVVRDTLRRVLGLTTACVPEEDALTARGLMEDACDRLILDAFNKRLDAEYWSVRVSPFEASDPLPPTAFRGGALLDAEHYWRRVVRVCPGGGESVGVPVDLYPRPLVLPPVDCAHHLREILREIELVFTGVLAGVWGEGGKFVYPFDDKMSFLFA
# T1 sequence (P10236 whole entry, stated change not applied): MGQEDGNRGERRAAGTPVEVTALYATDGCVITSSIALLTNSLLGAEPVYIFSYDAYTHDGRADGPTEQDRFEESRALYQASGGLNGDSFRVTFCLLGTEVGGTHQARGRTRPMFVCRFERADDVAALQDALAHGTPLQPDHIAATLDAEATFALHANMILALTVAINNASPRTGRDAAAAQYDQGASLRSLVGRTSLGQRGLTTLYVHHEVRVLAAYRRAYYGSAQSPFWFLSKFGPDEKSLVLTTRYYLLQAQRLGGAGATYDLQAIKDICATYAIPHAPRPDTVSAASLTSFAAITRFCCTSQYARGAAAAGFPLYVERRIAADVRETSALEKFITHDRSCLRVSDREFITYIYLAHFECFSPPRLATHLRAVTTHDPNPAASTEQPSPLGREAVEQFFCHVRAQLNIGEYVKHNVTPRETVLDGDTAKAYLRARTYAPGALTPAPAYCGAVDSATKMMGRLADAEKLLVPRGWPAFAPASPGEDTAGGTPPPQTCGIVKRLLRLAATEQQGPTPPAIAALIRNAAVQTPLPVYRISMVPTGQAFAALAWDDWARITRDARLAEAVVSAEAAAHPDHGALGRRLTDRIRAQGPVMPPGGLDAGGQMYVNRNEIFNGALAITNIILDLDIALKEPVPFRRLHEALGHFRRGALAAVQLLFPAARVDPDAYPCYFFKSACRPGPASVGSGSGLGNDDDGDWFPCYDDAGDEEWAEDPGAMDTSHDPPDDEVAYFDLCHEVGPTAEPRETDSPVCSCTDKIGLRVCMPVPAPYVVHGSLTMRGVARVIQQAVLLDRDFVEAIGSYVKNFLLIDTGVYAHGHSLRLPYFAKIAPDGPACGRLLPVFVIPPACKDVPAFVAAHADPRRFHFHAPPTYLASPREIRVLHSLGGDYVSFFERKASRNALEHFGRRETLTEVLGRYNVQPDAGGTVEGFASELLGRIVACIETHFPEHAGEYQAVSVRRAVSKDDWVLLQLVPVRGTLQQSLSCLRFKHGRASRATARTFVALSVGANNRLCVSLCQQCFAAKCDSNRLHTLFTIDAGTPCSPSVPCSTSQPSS
# Text: i) HSV-1 Helicase-primase DNA Primase Assay
# The HSV-1 helicase-primase enzyme used for primase assays was expressed and isolated as described (M. S. Dodson et al., J. Biol. Chem. 1989, 264, 20835; S. Dracheva et al. J. Biol. Chem. 1995, 270, 14148) except that the UL5-expressing baculovirus was changed to express UL5(K103A). The resulting altered enzyme contained no detectable helicase, DNA-dependent ATPase, or ATPase activity. However, DNA primase activity was increased over the wild type enzyme.
# Assay: DNA primase activity was measured by the incorporation of [^3 H]GTP into newly synthesized primers by the UL5(K103A) helicase-primase holoenzyme. Assays were performed using as template the 50-mer single-stranded DNA oligonucleotide 5'-CTTCTTCGGT TCCGACTAC CCCTCCCGACTGCCTATGATGTTTATCCTTT G-3'OH (SEQ ID No. 1) derived from the preferred priming site on .phi.X174 single-stranded DNA [D. J. Teney et al., J. Biol. Chem. 1995, 270, 9129-9136]. The reaction mixtures (60 μl) contained […] pH 8.0, 5 mM magnesium chloride, 1 mM DTT, 0.01 % CHAPS, 100 μM each of ATP, GTP, CTP, 10 μM [biotin]UTP, 1 μCi [^3 H]GTP (specific activity 30.8 Ci/mmol), 1 μg of the 50-mer template and 45 μg/ml of the UL5(K103A)-altered helicase-primaseholoenzyme. The samples were incubated at 34° for 45 min in a circulating waterbath and reactions were quenched by the addition of 20 μl 0.5 M EDTA pH 8. Then, 50 μl of the reaction mixtures were transferred to Millipore filtration plates (MHVB N45, 0.45 μm) containing 40 μl of immobilized avidin beads (Pierce). After incubating 30 min at room temperature on a microplate shaker, the wells were washed five times with 300 μl wash buffer (50 mM 4-(2-hydroxyethyl)-1-piperazineethanesulfonic acid (HEPES) pH 7.5 and 0.5 M NaCl) and the filter plates were aspirated to dryness. The radioactivity in each well was counted using the Topcount® after adding 100 μl Microscint® 20 (Camberra-Packard Canada, Mississauga, Ontario, Canada) to each well.
# In all cases, compounds were tested in three-fold serial dilutions and the results were expressed as percent inhibition as compared to control reactions without inhibitor. IC50 (i.e., inhibitor concentration that yielded 50% inhibition of enzyme activity) values were determined from dose-response curves using SAS software (SAS Institute, Cary, N.C., USA). A non-linear regression analysis based on the Hill equation, M. Dixon and E.C. Webb Enzymes, Academic Press: New York, N.Y., USA, 1979, was applied to the percent inhibition-concentration data.
# (§1) Results for assay i are expressed under the heading HSV-1, IC50 (μM). Results for assay ii are expressed under the heading HSV-1, EC50 (μM).
# [2] = tested on: HSV-1; test: Inhibition of Herpes Simplex Virus (HSV-1) Replication in Cell Culture (ELISA of glycoprotein C); type: cell-based, HSV-1 strain F or KOS; details: Human alphaherpesvirus 1; viral replication in BHK-21 cells, MOI 0.05 PFU/cell, 24 h, 37°
# Method: ii) Inhibition of Herpes Simplex Virus (HSV-1) Replication in Cell Culture
# Assay: BHK-21 cells clone 13 (ATCC CCL10) were incubated for two days in 850 cm^2 roller bottles (2×10^7 cells/bottle) with α-MEM medium (Gibco Canada Inc., Burlington, Ontario, Canada) supplemented with 8% (v/v) fetal bovine serum (FBS, Gibco Canada, Inc.). The cells were trypsinized and then 3,000 cells in 100 μL of fresh medium were transferred into each well of a 96-well microtiter plate. The cells were incubated at 37° for a period of 3 days to reach a density of 50,000 cells per well. The cells were washed twice with 100 μL of α-MEM supplemented with 2% heat inactivated FBS and incubated for 1-2 h in 100 μL of the same medium.
# Thereafter, the cells were infected with HSV-1 strain F or KOS (multiplicity of infection=0.05 PFU/cell) in 50 μL of α-MEM supplemented with 2% heat inactivated FBS. Following one hour of virus absorption at 37°, the medium was removed and the cells were washed with α-MEM supplemented with 2% heat inactivated FBS (2×100 μL). The cells were incubated with or without 100 μL of the appropriate concentration of test reagent in α-MEM medium supplemented with 2% heat inactivated FBS. After 24 h of incubation at 37°, the extent of viral replication was determined by an ELISA assay; for instance, the following assay that detects the late glycoprotein C of HSV-1.
# Cells were fixed in the microtiter plate with 100 μL of 0.063% glutaraldehyde in phosphate buffered saline for 30 min at room temperature. The microtiter plate was then washed once with casein blocking solution and blocked with 200 μL of the same solution for 1 h at room temperature. Thereafter, 100 μL of mAb C11 recognizing the glycoprotein C of HSV-1 (see E. Trybala et al., Journal of General Virology, 1994, 75, 743) was added to each well for 2 h at room temperature. The plate was washed three times with phosphate buffered saline containing 0.05% polyoxyethylene (20) sorbitan monooleate. The cells were incubated with 100 μL of sheep anti-mouse IgG horseradish peroxidase for 1 h at room temperature in the dark.
# The plate was washed three times with 200 μL of the above-noted phosphate buffer saline preparation, and then once with 0.1 M sodium citrate (pH 4.5). Thereafter, 100 μL of orthophenylenediamine dihydrochloride (OPD, Gibco, Canada Inc.) was added to each well. The plate was agitated on a microplate shaker for 30 min in the dark. Color development was monitored at 450 nm using a microplate spectrophotometer.
# SAS was used to calculate % inhibition of viral replication and to generate EC50 values.
# as §1
SMILES,pIC50 [1],pEC50 [2]
[N-]=[N+]=Nc1ccc(C(=O)Nc2cccc(C(=O)NCc3ccccc3)c2)c(O)c1 [Entry 104],> 6.00,
O=C(NCc1ccncc1)c1cccc(NC(=O)c2ccc(Cl)cc2O)c1 [Entry 19],4.00 to 6.00,
CN(CCc1ccccn1)C(=O)c1cccc(NC(=O)c2ccc(Cl)cc2O)c1 [Entry 11],< 4.00,
CCCC(=O)c1cccc(NC(=O)c2ccc(Cl)cc2O)c1 [Entry 4],4.00 to 6.00,4.00 to 6.00
CC(=O)c1cccc(NC(=O)c2ccc(Cl)cc2O)c1 [Entry 2],4.00 to 6.00,4.00 to 6.00
CCOC(=O)CC(=O)c1cccc(NC(=O)c2ccc(Cl)cc2O)c1 [Entry 3],4.00 to 6.00,4.00 to 6.00
O=C(Nc1cccc(C(=O)N2CCCCC2)c1)c1ccc(Cl)cc1O [Entry 10],< 4.00,> 6.00
Nc1cc(Cl)ccc1C(=O)Nc1cccc(C(=O)NCc2ccccc2)c1 [Entry 107],< 4.00,
"CCCCN(C)C(=O)c1cccc(NC(=O)c2ccc(Cl)cc2O)c1 [Entry 12, N-Butyl-N-methyl-3-{(4-chloro-2-hydroxybenzoyl)amino)benzamide]",< 4.00,> 6.00
CCCCNC(=O)c1cccc(NC(=O)c2ccc(Cl)cc2O)c1 [Entry 16],4.00 to 6.00,4.00 to 6.00
COc1ccc(C(=O)Nc2cccc(C(=O)NCc3ccccc3)c2)c(O)c1 [Entry 103],> 6.00,
O=C(Cc1ccccc1)c1cccc(NC(=O)c2ccc(Cl)cc2O)c1 [Entry 5],4.00 to 6.00,4.00 to 6.00
"CCCCC(C(=O)OCC)C(=O)c1cccc(NC(=O)c2ccc(Cl)cc2O)c1 (stereo not drawn) [Entry 1, Ethyl α-butyl-3-{(4chloro2-hydroxybenzoyl)amino}-β-oxobenzenepropanoate]",4.00 to 6.00,4.00 to 6.00
O=C(OCc1ccccc1)c1cccc(NC(=O)c2ccc(Cl)cc2O)c1 [Entry 9],> 6.00,
Nc1ccccc1C(=O)Nc1cccc(C(=O)NCc2ccccc2)c1 [Entry 105],< 4.00,
CCCCCC(=O)c1cccc(NC(=O)c2cccc(Cl)c2O)c1 [Entry 101],4.00 to 6.00,4.00 to 6.00
O=C(NCc1ccccc1)c1cccc(NC(=O)c2ccc(Cl)cc2O)c1 [Entry 15],> 6.00,4.00 to 6.00
Nc1ccc(C(=O)Nc2cccc(C(=O)NCc3ccccc3)c2)c(O)c1 [Entry 108],4.00 to 6.00,
O=C(OCc1ccccn1)c1cccc(NC(=O)c2ccc(Cl)cc2O)c1 [Entry 8],> 6.00,4.00 to 6.00
[N-]=[N+]=Nc1cc(O)c(C(=O)Nc2cccc(C(=O)NCc3ccccc3)c2)cc1I [Entry 106],> 6.00,
O=C(NCC1CCCCC1)c1cccc(NC(=O)c2ccc(Cl)cc2O)c1 [Entry 13],> 6.00,4.00 to 6.00
Cc1ccc(C(=O)Nc2cccc(C(=O)NCc3ccccc3)c2)c(O)c1 [Entry 102],> 6.00,
O=C(CCc1ccccc1)c1cccc(NC(=O)c2ccc(Cl)cc2O)c1 [Entry 7],4.00 to 6.00,
O=C(NC1CCCCC1)c1cccc(NC(=O)c2ccc(Cl)cc2O)c1 [Entry 18],4.00 to 6.00,> 6.00
O=C(NCCc1ccccn1)c1cccc(NC(=O)c2ccc(Cl)cc2O)c1 [Entry 14],4.00 to 6.00,4.00 to 6.00
O=C(Nc1cccc(C(=O)C2CCCCC2)c1)c1ccc(Cl)cc1O [Entry 6],4.00 to 6.00,4.00 to 6.00
O=C(NCc1ccccn1)c1cccc(NC(=O)c2ccc(Cl)cc2O)c1 [Entry 17],> 6.00,4.00 to 6.00
